The results in this text go back to patent US20110144156A1, “A3 ADENOSINE RECEPTOR ALLOSTERIC MODULATORS” (UNIVERSITEIT LEIDEN, priority 2008, published 2011).

A value given as a limit tells only on which side of the number the result lay.

For assay [1], the target named is T1, human A3ARs (Homo sapiens, UniProt P0DMS8).
T1 construct: expressed in transfected cells; host or cells: CHO (Chinese hamster ovary) cells; membrane preparation
T1 sequence (P0DMS8 1-318): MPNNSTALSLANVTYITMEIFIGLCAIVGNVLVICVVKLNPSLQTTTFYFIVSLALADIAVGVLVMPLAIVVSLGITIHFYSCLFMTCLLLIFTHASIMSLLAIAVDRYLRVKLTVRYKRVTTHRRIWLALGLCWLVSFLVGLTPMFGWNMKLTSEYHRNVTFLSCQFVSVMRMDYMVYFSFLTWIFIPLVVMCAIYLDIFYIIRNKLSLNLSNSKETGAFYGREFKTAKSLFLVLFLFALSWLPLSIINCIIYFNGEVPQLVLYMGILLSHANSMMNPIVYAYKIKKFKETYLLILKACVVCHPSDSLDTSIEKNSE
As to the kind of experiment: Dissociation kinetics of [125I]I-AB-MECA from human A3ARs (allosteric effect). The conditions noted are these: 10 μM test compound; binding after 1.5 or 2 hours of dissociation, control without modulator set at 100%; brackets = result of each of two assays; read-out: hA3ARAg Dissociation at 10 μM. Here is the method: (§1) CHO (Chinese hamster ovary) cells expressing the recombinant human A3 receptors were cultured in DMEM and F12 (1:1) supplemented with 10% fetal bovine serum, 100 units/ml penicillin, 100 μg/ml streptomycin and 2 μmol/ml glutamine. Cells were harvested by trypsinization. After homogenization and suspension, cells were centrifuged at 500 g for 10 min, and the pellet was re-suspended in 50 mM Tris.HCl buffer (pH 7.4) containing 10 mM MgCl2. The suspension was homogenized with an electric homogenizer for 10 sec, and was then re-centrifuged at 20,000 g for […] at 4° C. The resultant pellets were resuspended in buffer in the presence of 3 Units/mL adenosine deaminase, and the suspension was stored at −80° C. until the binding experiments. The protein concentration was measured using the Bradford assay.
The dissociation of [^125I]I-AB-MECA was measured as follows. Membranes (20 μg) were pre-incubated at 25° C. with 0.5 nM [^125I]I-AB-MECA, in a total volume of 100 μl of Tris-HCl buffer (50 mM, pH 8.0) containing 10 mM MgCl2, and 1 mM EDTA for 60 min. The dissociation was then initiated by the addition of 3 μM Cl-IB-MECA with or without allosteric modulators. The time course of dissociation of total binding was measured by rapid filtration at appropriate time intervals. Nonspecific binding was measured after 60-min incubation in the presence of 3 μM Cl-IB-MECA. Further assay was as described above.

Assay [2] has as its target T1, human A3ARs. As to the kind of experiment: Competitive binding assay to the human A3 AR with [125I]I-AB-MECA. The conditions noted are these: 1 h, 10 μM test compound; [125I]I-AB-MECA radioligand; CHO cell membranes expressing human A3AR; brackets = individual assays; read-out: % displacement at 10 μM (hA3AR). Here is the method:
as §1
Each tube in the competitive binding assay contained 100 μl membrane suspension (20 μg protein), 50 μl [^125I]I-AB-MECA (0.5 nM), and 50 μl of increasing concentrations of the test modulators in Tris.HCl buffer (50 mM, pH 8.0) containing 10 mM MgCl2, 1 mM EDTA. Nonspecific binding was determined using 10 μM of 5′-N-ethylcarboxamidoadenosine in the buffer. The mixtures were incubated at 25° C. for 60 min. Binding reactions were terminated by filtration through Whatman GF/B filters under reduced pressure using a MT-24 cell harvester (Brandell, Gaithersburgh, Md., USA). Filters were washed three times with 9 mL ice-cold buffer. Radioactivity was determined in a Beckman 5500B γ-counter.
Binding parameters were calculated using Prism 5.0 software (GraphPAD, San Diego, Calif., USA). IC50 values obtained from competition curves were converted to Ki values using the Cheng-Prusoff equation. Data were expressed as mean±standard error.

Regarding `O=C(Nc1cc(Nc2ccccc2)nc2ccccc12)C1CCCC1` [Compound 16, N-(2-anilinoquinolin-4-yl)cyclopentanecarboxamide], the activity at 10 µM on human A3ARs [1] was found to be 145%. Further, on human A3ARs [2], the inhibition at 10 µM amounted to 61%.

Consider `O=C(Nc1cc(Nc2ccc(Cl)c(Cl)c2)nc2ccccc12)C1CCCC1` [Compound 17, N-{2-[(3,4-dichlorophenyl)amino]quinolin-4-yl}cyclopentanecarboxamide], for which the activity at 10 µM on human A3ARs [1] is 169%. The inhibition at 10 µM at human A3ARs [2] was 50%.

Turning to `O=C(Nc1cc(NCc2ccccc2)nc2ccccc12)C1CCCC1` [Compound 18, N-[2-(benzylamino)quinolin-4-yl]cyclopentanecarboxamide], the activity at 10 µM on human A3ARs [1] amounted to 107%. Moreover, the inhibition at 10 µM at human A3ARs [2] turned out to be 28%.

Regarding `Cc1ccc(Nc2cc(NC(=O)C3CCCC3)c3ccccc3n2)cc1` [Compound 19, N-{2-[(4-methylphenyl)amino]quinolin-4-yl}cyclopentanecarboxamide], on human A3ARs [1], the activity at 10 µM worked out at 165%. Moreover, the inhibition at 10 µM at human A3ARs [2] worked out at 63%.

Take `O=C(Nc1cc(Nc2ccc3c(c2)CCC3)nc2ccccc12)C1CCCC1` [Compound 20, N-[2-(2,3-dihydro-1H-inden-5-ylamino)quinolin-4-yl]cyclopentanecarboxamide]: at human A3ARs [1], the activity at 10 µM came out at 147%. On human A3ARs [2], the inhibition at 10 µM came to 62%.

Regarding `COc1ccc(Nc2cc(NC(=O)C3CCCC3)c3ccccc3n2)cc1` [Compound 21, N-{2-[(4-methoxyphenyl)amino]quinolin-4-yl}cyclopentanecarboxamide], at human A3ARs [1], the activity at 10 µM turned out to be 134%. Further, on human A3ARs [2], the inhibition at 10 µM turned out to be 35%.

With `O=C(Nc1cc(NC2CCCC2)nc2ccccc12)C1CCCC1` [Compound 23, N-[2-(cyclopentylamino)quinolin-4-yl]cyclopentanecarboxamide], at human A3ARs [1], the activity at 10 µM stood at 114%. For the same compound, at human A3ARs [2], the inhibition at 10 µM worked out at 14%.

On to `O=C(Nc1cc(Nc2ccc3cn[nH]c3c2)nc2ccccc12)C1CCCC1` [Compound 24, N-[2-(1H-indazol-6-ylamino)quinolin-4-yl]cyclopentanecarboxamide], for which, at human A3ARs [1], the activity at 10 µM was found to be 102%. Moreover, the inhibition at 10 µM on human A3ARs [2] came out at 90%.

On to `O=C(Nc1cc(Nc2ccc(Cl)c(Cl)c2)nc2ccccc12)C1CCCCC1` [Compound 26, N-{2-[(3,4-dichlorophenyl)amino]quinolin-4-yl}cyclohexanecarboxamide], for which the activity at 10 µM on human A3ARs [1] is not above 249%.

As for `Cc1ccc(Nc2cc(NC(=O)C3CCCCC3)c3ccccc3n2)cc1` [Compound 27, N-{2-[(4-methylphenyl)amino]quinolin-4-yl}cyclohexanecarboxamide], at human A3ARs [1], the activity at 10 µM worked out at 220%. Moreover, the inhibition at 10 µM at human A3ARs [2] worked out at 64%.

For the compound `O=C(Nc1cc(Nc2ccc3c(c2)CCC3)nc2ccccc12)C1CCCCC1` [Compound 28, N-[2-(2,3-dihydro-1H-inden-5-ylamino)quinolin-4-yl]cyclohexanecarboxamide], the inhibition at 10 µM at human A3ARs [2] was less than 50%.

Consider `O=C(Nc1cc(Nc2ccccc2)nc2ccccc12)c1ccccc1` [Compound 29, N-(2-anilinoquinolin-4-yl)benzamide], for which, on human A3ARs [1], the activity at 10 µM was found to be 100%. The inhibition at 10 µM at human A3ARs [2] was determined as 76%.

Regarding `O=C(Nc1cc(Nc2ccc(Cl)c(Cl)c2)nc2ccccc12)c1ccccc1` [Compound 30, N-{2-[(3,4-dichloro-phenyl)amino]quinolin-4-yl}benzamide], the activity at 10 µM on human A3ARs [1] was 112%. For the same compound, the inhibition at 10 µM on human A3ARs [2] was 37%.

Turning to `O=C(Nc1cc(Nc2ccccc2)nc2ccccc12)c1ccco1` [Compound 31, N-(2-anilinoquinolin-4-yl)-2-furamide], on human A3ARs [1], the activity at 10 µM came to 100%. In addition, on human A3ARs [2], the inhibition at 10 µM was 60%.

Regarding `O=C(Nc1cc(Nc2ccc(Cl)c(Cl)c2)nc2ccccc12)c1ccco1` [Compound 32, N-{2-[(3,4-dichlorophenyl)amino]quinolin-4-yl}-2-furamide], the activity at 10 µM at human A3ARs [1] was 96%. Moreover, the inhibition at 10 µM on human A3ARs [2] amounted to 13%.

As for `O=C(Nc1cc(Nc2ccccc2)nc2ccccc12)C1CCC1` [Compound 33, N-(2-anilinoquinolin-4-yl)cyclobutanecarboxamide], at human A3ARs [1], the activity at 10 µM stood at 119%. The inhibition at 10 µM on human A3ARs [2] was found to be 66%.

With `O=C(Nc1cc(Nc2ccc(Cl)c(Cl)c2)nc2ccccc12)C1CCC1` [Compound 34, N-{2-[(3,4-dichlorophenyl)amino]quinolin-4-yl}cyclobutanecarboxamide], the activity at 10 µM on human A3ARs [1] came out at 149%. Moreover, on human A3ARs [2], the inhibition at 10 µM stood at 51%.
